Reference: ChEMBL document CHEMBL4665893, “Scalable Synthesis, In Vitro cccDNA Reduction, and In Vivo Antihepatitis B Virus Activity of a Phosphonomethoxydeoxythreosyl Adenine Prodrug” (J Med Chem, 2020)
Activity calls are given as the source filed them. The calls are words filed in the database; no cut-off is given here.

Legend:
Hepatitis B virus [1] = test: Antiviral activity against ETV-resistant and adenovirus AdH294-7LR harboring wild-type HBV infected in human HepG2 cells assessed as viral replicative intermediate DNA level at 3300 nM incubated for 5 days by Southern blot analysis (reference value: 100%); assay type: functional; conditions: time 5 day
[2] = Toxicity in C57BL/6 male mouse assessed as increase in neutrophils level at 60 mg/kg, po for 14 days by hematology analysis; assay type: organism-based; conditions: in vivo, 336 h, time 14 day
[3] = Toxicity in C57BL/6 female mouse assessed as increase in thymus weight level at 60 mg/kg, po for 14 days; assay type: organism-based; conditions: in vivo, 336 h, time 14 day
[4] = Toxicity in C57BL/6 mouse assessed as induction of functional deficit at 60 mg/kg, po for 14 days; assay type: organism-based; conditions: in vivo, 336 h, time 14 day
[5] = Toxicity in human HepDE19 cells assessed as reduction in beta-actin level incubated for 9 days by qPCR analysis; assay type: cell-based; conditions: time 9 day
Hepatitis B virus [6] = test: Antiviral activity against ETV-resistant and adenovirus AdH294-7LR harboring wild-type HBV infected in human HepG2 cells assessed as reduction in viral replicative intermediate DNAs at 4 to 1000 nM incubated for 5 days by Southern blot analysis; assay type: functional, organism-based; conditions: time 5.0 day
Hepatitis B virus [7] = test: Antiviral activity against adenovirus AdH294-WT harboring wild-type HBV genotype D accession #V01460 infected in human HepG2 cells assessed as reduction in viral replicative intermediate DNAs incubated for 5 days by Southern blot analysis; assay type: functional, organism-based; conditions: genotype D accession #V01460, HepG2, 120 h
[8] = Genotoxicity in Salmonella typhimurium TA98 assessed as increase in number of spontaneous revertants colonies by Ames test; assay type: toxicity; conditions: salmonella enterica subsp. enterica serovar typhimurium, 1 µM
[9] = Toxicity in C57BL/6 male mouse assessed as reduction in food consumption loss at 60 mg/kg, po for 11 days relative to control; assay type: organism-based; conditions: in vivo, 264 h, time 11 day
[10] = Toxicity in C57BL/6 female mouse assessed as reduction in hemoglobin level at 60 mg/kg, po for 14 days by hematology analysis; assay type: organism-based; conditions: in vivo, 336 h, time 14 day
[11] = Genotoxicity in Salmonella typhimurium TA1537 assessed as increase in number of spontaneous revertants colonies by Ames test; assay type: toxicity; conditions: salmonella enterica subsp. enterica serovar typhimurium, 1 µM
Hepatitis B virus [12] = test: Antiviral activity against ETV-resistant and adenovirus AdH294-7LR harboring wild-type HBV infected in human HepG2 cells assessed as viral replicative intermediate DNA level at 13 nM incubated for 5 days by Southern blot analysis (reference value: 100%); assay type: functional; conditions: time 5 day
Hepatitis B virus [13] = test: Antiviral activity against ETV-resistant and adenovirus AdH294-7LR harboring wild-type HBV infected in human HepG2 cells assessed as viral replicative intermediate DNA level at 4 nM incubated for 5 days by Southern blot analysis (reference value: 100%); assay type: functional; conditions: time 5 day
Hepatitis B virus [14] = test: Antiviral activity against ETV-resistant and adenovirus AdH294-7LR harboring wild-type HBV infected in human HepG2 cells assessed as viral replicative intermediate DNA level at 1100 nM incubated for 5 days by Southern blot analysis (reference value: 100%); assay type: functional; conditions: time 5 day
Hepatitis B virus [15] = test: Antiviral activity against adenovirus AdH294-WT harboring wild-type HBV genotype D accession #V01460 infected in human HepG2 cells assessed as reduction in viral replicative intermediate DNA level at 13 nM incubated for 5 days by Southern blot analysis (reference value: 100%); assay type: functional; parameters: scale not given: the % may be the effect or the level left; conditions: time 5 day
[16] = Genotoxicity in Salmonella typhimurium at 1 uM by Ames test; assay type: toxicity; conditions: salmonella enterica subsp. enterica serovar typhimurium
[17] = Genotoxicity in Salmonella typhimurium TA100 assessed as increase in number of spontaneous revertants colonies by Ames test; assay type: toxicity; conditions: salmonella enterica subsp. enterica serovar typhimurium, 1 µM
Hepatitis B virus [18] = test: Antiviral activity against adenovirus AdH294-WT harboring wild-type HBV genotype D accession #V01460 infected in human HepG2 cells assessed as reduction in viral replicative intermediate DNA level at 40 nM incubated for 5 days by Southern blot analysis (reference value: 100%); assay type: functional; parameters: scale not given: the % may be the effect or the level left; conditions: time 5 day
[19] = Toxicity in C57BL/6 female mouse assessed as reduction in lymphocytes level at 60 mg/kg, po for 14 days by hematology analysis; assay type: organism-based; conditions: in vivo, 336 h, time 14 day
[20] = Toxicity in C57BL/6 male mouse assessed as reduction in hemoglobin level at 60 mg/kg, po for 14 days by hematology analysis; assay type: organism-based; conditions: in vivo, 336 h, time 14 day
Hepatitis B virus [21] = test: Antiviral activity against adenovirus AdH294-WT harboring wild-type HBV genotype D accession #V01460 infected in human HepG2 cells assessed as reduction in viral replicative intermediate DNA level at 1100 nM incubated for 5 days by Southern blot analysis (reference value: 100%); assay type: functional; parameters: scale not given: the % may be the effect or the level left; conditions: time 5 day
[22] = Toxicity in C57BL/6 male mouse assessed as reduction in mean corpuscular volume level at 60 mg/kg, po for 14 days by hematology analysis; assay type: organism-based; conditions: in vivo, 336 h, time 14 day
Hepatitis B virus [23] = test: Antiviral activity against adenovirus AdH294-WT harboring wild-type HBV genotype D accession #V01460 infected in human HepG2 cells assessed as reduction in viral replicative intermediate DNA level at 120 nM incubated for 5 days by Southern blot analysis (reference value: 100%); assay type: functional; parameters: scale not given: the % may be the effect or the level left; conditions: time 5 day
Hepatitis B virus [24] = test: Antiviral activity against ETV-resistant and adenovirus AdH294-7LR harboring wild-type HBV infected in human HepG2 cells assessed as viral replicative intermediate DNA level at 10000 nM incubated for 5 days by Southern blot analysis (reference value: 100%); assay type: functional; conditions: time 5 day
Hepatitis B virus [25] = test: Antiviral activity against HBV infected in human HepDE19 cells assessed as reduction in HBV cccDNA incubated for 9 days by qPCR analysis; assay type: functional, organism-based; conditions: HepDE19, 216 h

**Q.** For `CC(C)CCOC(=O)C[C@H](NP(=O)(CO[C@H]1CO[C@@H](n2cnc3c(N)ncnc32)C1)Oc1ccccc1)C(=O)OCCC(C)C` (mixture of isomers), which Activity (Hepatitis B virus [1]) is on record?
**A.** The Activity was 11.7%.

**Q.** What about the Activity [2] of the same compound?
**A.** The Activity was “Toxic”.

**Q.** And the Activity [3]?
**A.** Its Activity is “Toxic”.

**Q.** And the Activity [4]?
**A.** The Activity was “Non-Toxic”.

**Q.** And the CC50 at 216 h [5]?
**A.** Its CC50 at 216 h is 230 nM.

**Q.** What about the Activity (Hepatitis B virus [6]) of the same compound?
**A.** Its Activity is “Active”.

**Q.** What about the EC50 (Hepatitis B virus [7]) of the same compound?
**A.** The EC50 was less than 4 nM.

**Q.** What about the Activity [8] of the same compound?
**A.** Its Activity is “Non-Toxic”.

**Q.** And the Activity [9]?
**A.** Its Activity is “Toxic”.

**Q.** What about the Activity [10] of the same compound?
**A.** The Activity was “Non-Toxic”.

**Q.** And the Activity [11]?
**A.** The Activity was “Non-Toxic”.

**Q.** And the Activity (Hepatitis B virus [12])?
**A.** The Activity was 101.5%.

**Q.** And the Activity (Hepatitis B virus [13])?
**A.** Its Activity is 98.2%.

**Q.** And the Activity (Hepatitis B virus [14])?
**A.** Its Activity is 18.1%.

**Q.** And the Activity (Hepatitis B virus [15])?
**A.** The Activity was 22.4%.

**Q.** And the Activity [16]?
**A.** Its Activity is “Non-Toxic”.

**Q.** What about the Activity [17] of the same compound?
**A.** The Activity was “Non-Toxic”.

**Q.** And the Activity (Hepatitis B virus [18])?
**A.** The Activity was 12.9%.

**Q.** What about the Activity [19] of the same compound?
**A.** The Activity was “Non-Toxic”.

**Q.** What about the Activity [20] of the same compound?
**A.** The Activity was “Toxic”.

**Q.** And the Activity (Hepatitis B virus [21])?
**A.** The Activity was 0.7%.

**Q.** What about the Activity [22] of the same compound?
**A.** Its Activity is “Toxic”.

**Q.** And the Activity (Hepatitis B virus [23])?
**A.** The Activity was 7.5%.

**Q.** And the Activity (Hepatitis B virus [24])?
**A.** The Activity was 5.9%.

**Q.** What about the IC50 (Hepatitis B virus [25]) of the same compound?
**A.** Its IC50 is 6 nM.

**Q.** What about the IC90 (Hepatitis B virus [25]; time 9 day) of the same compound?
**A.** Its IC90 is 70 nM.
